Calls of active or inactive are those of the source. The calls are words filed in the database; no cut-off is given here.
Columns and labels:
[1] = target: Replicase polyprotein 1ab (Severe acute respiratory syndrome coronavirus 2, UniProt P0DTD1); test: Inhibition of recombinant SARS-CoV-2 PLpro using TLKGGI-AMC as substrate assessed as assessed as inhibition constant ny measuring fluorescence signal measured after 15 mins
[2] = target: Replicase polyprotein 1ab (Severe acute respiratory syndrome coronavirus 2) (UniProt P0DTD1); test: Inhibition of recombinant SARS-CoV-2 PLpro using TLKGGI-AMC as substrate assessed as assessed as inhibition constant ny measuring fluorescence signal at 10 uM measured after 15 mins relative to control
[3] = target: Replicase polyprotein 1ab (Severe acute respiratory syndrome coronavirus 2) (UniProt P0DTD1); test: Binding affinity to SARS-CoV-2 PLpro assessed as thermal stability by measuring melting temperature of half of the proteins unfolded by differential scanning fluorimetry (DSF) (reference value: 45.79 degC)
SARS-CoV-2 [4] = test: Antiviral activity against SARS-CoV-2 infected in African green monkey Vero E6 cells assessed as viral load reduction at 4 uM by measuring viral RNA measured up to 72 hrs by RT-PCR analysis relative to control; assay type: functional, Severe acute respiratory syndrome coronavirus 2, Vero C1008; parameters: scale not given: the % may be the effect or the level left
[5] = test system: Severe acute respiratory syndrome coronavirus 2; test: Binding affinity to SARS-CoV-2 MPro assessed as thermal stability by measuring melting temperature of half of the proteins unfolded by differential scanning fluorimetry (DSF) (reference value: 52.46 degC)
[6] = Cytotoxicity against human HEK293 cells assessed as cell viability measured after 48 hrs by MTT assay; assay type: toxicity, cell-based
SARS-CoV-2 [7] = test: Antiviral activity against SARS-CoV-2 infected in African green monkey Vero E6 cells assessed as viral reduction by measuring viral RNA measured up to 72 hrs by RT-PCR analysis; assay type: functional, organism-based; details: Severe acute respiratory syndrome coronavirus 2, SARS-CoV-2, Vero C1008, 72 h
[8] = target: Chymotrypsin (Homo sapiens) (UniProt Q99895+P17538+P40313+Q6GPI1); test: Inhibition of Chymotrypsin (unknown origin) assessed as BSA digestion; assay type: protein assay
[9] = Cytotoxicity against African green monkey Vero E6 cells assessed as cell viability at 100 uM measured after 48 hrs by MTT assay relative to control; assay type: toxicity, cell-based, Vero C1008; details: chlorocebus sabaeus, read-out: Activity
[10] = target: Replicase polyprotein 1ab (Severe acute respiratory syndrome coronavirus 2) (UniProt P0DTD1); test: Non-covalent inhibition of SARS-CoV-2 PLpro by Lineweaver-Burk Plot analysis
[11] = test system: Severe acute respiratory syndrome coronavirus 2; test: Non-covalent inhibition of SARS-CoV-2 MPro by Lineweaver-Burk Plot analysis
[12] = Inhibition of SARS-CoV-2 MPro using Dabcyl-KTSAVLQ/SGFRKME- (Edans) as substrate by FRET assay; parameters: species or system Severe acute respiratory syndrome coronavirus 2
[13] = Acute toxicity in rat assessed as toxicity at 175 to 2000 mg/kg, po measured for 14 days; assay type: organism-based; details: in vivo, dose 175-2000 mg/kg, time 14 day
[14] = Acute toxicity in rat assessed as morphological changes in liver in portal, periportal, and centrilobular regions at 175 to 2000 mg/kg, po measured for 14 days by Hand E staining based analysis; assay type: organism-based; details: in vivo, 336 h, dose 175-2000 mg/kg, time 14 day
[15] = target: Replicase polyprotein 1ab (Severe acute respiratory syndrome coronavirus 2) (UniProt P0DTD1); test: Covalent binding affinity to SARS-CoV-2 PLpro assessed as change in molecular weight by Mass spectrometry
[16] = Acute toxicity in rat assessed as change in body weight at 175 to 2000 mg/kg, po measured for 14 days; assay type: organism-based; details: in vivo, 336 h, dose 175-2000 mg/kg, time 14 day
[17] = target: Replicase polyprotein 1ab (Severe acute respiratory syndrome coronavirus 2) (UniProt P0DTD1); test: Non-covalent binding affinity to SARS-CoV-2 PLpro assessed change in molecular weight by Mass spectrometry
[18] = target: Replicase polyprotein 1ab (Severe acute respiratory syndrome coronavirus 2) (UniProt P0DTD1); test: Reversible inhibition of SARS-CoV-2 PLpro assessed as enzyme activity by dialysis; parameters: scale not given: the % may be the effect or the level left
[19] = test system: Severe acute respiratory syndrome coronavirus 2; test: Reversible inhibition of SARS-CoV-2 MPro assessed as enzyme activity by dialysis; parameters: scale not given: the % may be the effect or the level left
SARS-CoV-2 [20] = test: Antiviral activity against SARS-CoV-2 infected in African green monkey Vero E6 cells assessed as viral load reduction at 0.125 uM by measuring viral RNA measured up to 72 hrs by RT-PCR analysis relative to control; assay type: functional, Severe acute respiratory syndrome coronavirus 2, Vero C1008; parameters: scale not given: the % may be the effect or the level left
Human coronavirus 229E = test: Antiviral activity against HCoV-229E infected in human Huh7.5 Fluc cells; assay type: functional, organism-based

Row | Compound | Ki [1] | inhibition [2] | Ki ([1]; read-out: Ki) | Tm [3] | Activity (SARS-CoV-2 [4]) | IC50 at 48 h [6] | EC50 (SARS-CoV-2 [7]) | inhibition [8] | viability at 48 h, 100 µM [9] | further results
1 | CCOC(=O)c1sc(NNC(=O)c2ccc(F)cc2)nc1C | Not_active | < 50% | – | – | – | – | – | – | – | –
2 | Cc1ccc(-c2csc(NNC(=O)c3ccc([N+](=O)[O-])cc3)n2)cc1 | – | – | 1250 nM | 41.4 °C | >80% | 6690 nM | 126 nM | inactive | 82.3% | Tm [5]: 52.6 °C
3 | COC(=O)c1sc(NNC(=O)c2ccc([N+](=O)[O-])cc2)nc1C | Not_active | < 50% | – | – | – | – | – | – | – | –
4 | Clc1nc2ccccc2cc1/C=N/Nc1nc(-c2ccccc2)cs1 | Not_active | < 50% | – | – | – | – | – | – | – | –
5 | Oc1ccc(/C=N/Nc2nc(-c3ccc(Cl)cc3)cs2)cc1 | – | – | 290 nM | 44.3 °C | – | 194000 nM | – | inactive | 91% | Activity [10]: Active; Tm [5]: 51.4 °C
6 | O=C(NNc1nc(-c2ccc(Cl)cc2)cs1)c1ccc(F)cc1 | – | – | 180 nM | 47.1 °C | >80% | 41200 nM | 41 nM | – | 86.5% | –
7 | CCOC(=O)c1sc(NNC(=O)c2ccc(Br)cc2)nc1C | – | – | 500 nM | 41.5 °C | >80% | 219000 nM | 116 nM | inactive | 86.9% | Activity [10]: Active; Tm [5]: 49.7 °C; Activity [11]: Active
8 | Cc1ccc(C(=O)NNc2nc(-c3ccc(Cl)cc3)cs2)cc1 | – | – | 240 nM | 45.8 °C | >70% | 41100 nM | 68 nM | inactive | 91.5% | Activity [10]: Active; Tm [5]: 51.8 °C
9 | Cc1ccc(C(=O)NNc2nc(-c3ccc(Br)cc3)cs2)cc1 | Not_active | < 50% | – | – | – | – | – | – | – | –
10 | O=C(NNc1nc(-c2ccc(Br)cc2)cs1)c1ccc(Br)cc1 | Not_active | < 50% | – | – | – | – | – | – | – | –
11 | O=C(NNc1nc(-c2ccc(Cl)cc2)cs1)c1ccc(Cl)cc1 | – | – | 500 nM | 47.5 °C | >80% | 14000 nM | 64 nM | – | 87% | –
12 | O=C(NNc1nc(-c2ccc(Br)cc2)cs1)c1ccc([N+](=O)[O-])cc1 | – | – | 4220 nM | – | – | – | – | inactive | 99.5% | –
13 | CCOC(=O)c1sc(NNC(=O)c2ccccc2)nc1C | Not_active | < 50% | – | – | – | – | – | – | – | –
14 | N#Cc1ccc2nc(N3C(=O)CSC3c3c(F)cccc3Cl)sc2c1 (configuration not stated) | – | – | – | – | – | – | – | – | – | IC50 [12]: 10 nM
15 | CCOC(=O)c1sc(NNC(=O)c2ccc([N+](=O)[O-])cc2)nc1C | – | – | 450 nM | 41.5 °C | >80% | 25900 nM | 97 nM | inactive | 89.2% | LD50 at 336 h [13]: > 2000 mg/kg; Activity [14]: Non-toxic; Activity [10]: Active; Activity [15]: inactive; Tm [5]: 51 °C; Activity [16]: Non-toxic; Activity [11]: Active; Activity [17]: Active; Activity [18]: > 90%; Activity [19]: > 90%
16 | Cc1ccc(-c2csc(NNC(=O)c3ccc(F)cc3)n2)cc1 | – | – | 340 nM | 47.1 °C | >70% | 25300 nM | 38 nM | inactive | 92.1% | Activity (SARS-CoV-2 [20]): >70%
17 | C=C1NC(=O)[C@]2(C)CSC(=N2)c2csc(n2)[C@]2(C)CSC(=N2)C([C@@H](C)CC)NC(=O)[C@@H](C)NC(=O)/C(=C\C(C)C)COC(=O)c2csc(n2)[C@H](C(C)C)N(C)C(=O)[C@H](COC)NC1=O (some centres not stated) | – | – | – | – | – | – | – | – | – | IC50 (Human coronavirus 229E): 2390 nM
18 | CCOC(=O)c1sc(NNC(=O)c2cccc(Br)c2)nc1C | Not_active | < 50% | – | – | – | – | – | – | – | –
19 | CCOC(=O)c1sc(NNC(=O)c2ccc(C)cc2)nc1C | – | < 50% | 230 nM | – | – | – | – | – | – | –
20 | Cc1ccc(C(=O)NNc2nc(-c3ccc(C)cc3)cs2)cc1 | Not_active | < 50% | – | – | – | – | – | – | – | –
21 | O=C(NNc1nc(-c2ccc(Br)cc2)cs1)c1ccc(Cl)cc1 | – | – | 1720 nM | – | – | – | – | inactive | 86.7% | –
